Patent publication US4798898A, “Antitussive and mucus regulating 2-substituted thiazolidines” (Boehringer Biochemia Robin S.p.A., priority 1984, dated 1989)
Where a name gives a salt, the structure may show the parent alone.

Columns and labels:
[1] = system: cough induced by electric stimulation in dogs; assay: Dog cough test (cough induced by electric stimulation, Stefko procedure); assay type: in vivo, conscious mongrel dogs; settings: for duration of action (antitussive): test not named; for duration of action: in words; for % inhibition of cough stimulus: oral, dose not given
Experimental: (§1) The techniques described by Charlier et al. (Arch. Int. Pharmacodyn. 134, 306, 1961) and by Stefko et al. (J. Pharm. Exp. Therap., 108, 217, 1953), adapted with minor modifications, are used to investigate the antitussive properties of the compounds of the invention. Codeine phosphate is used as positive reference compound.
In the Stefko procedure, conscious mongrel dogs (15±3 kg body weight) are used; the compounds of the invention are tested for their ability to inhibit cough induced by electric stimulation.
Under general anesthesia, two insulated nichrome wires (0.4 mm diameter) are surgically implanted into the submucosa of the trachea.
About two days later, the dogs are placed in a sling and the exteriorized electrodes are connected to an electric stimulating device (such as Grass S 48 Mod.).
The stimulation parameters such as: delay 0.01 msec, duration 1 msec, frequency 30 Hz, are used.
An electrical stimulus of 1 sec is applied 10 times at 5 sec intervals in order to determine the minimum voltage necessary for eliciting reproducible cough responses. Then, tussive responses to the electrical stimuli are registered at 15, 30, 60, 90, 120, 150, 180, 240, 300 and 360 minutes after oral administration of the compounds of the invention.
The tussive responses are scored as follows: 1: no response; 2: sigh or exaggerated expiration; 3: marked cough; 4: one marked cough and one exaggerated expiration: 5: two marked coughs.
Six dogs are employed for each determination and the mean activity is calculated.
The inhibition percent of the cough response and the duration of activity are compared with codeine.

[2] = system: cough induced by citric acid aerosol in guinea pigs; assay: Guinea pig cough test (citric acid aerosol, Charlier procedure); assay type: in vivo; settings: Cavia porcellus, inhaled or nasal, antitussive test not given
[3] = system: cough induced by citric acid aerosol in guinea pigs; assay: as above; assay type: in vivo; settings: for ED50: guinea pig cough test, i.p., 60 minutes after treatment
Experimental: as §1
According to the Charlier procedure guinea pigs are exposed to a citric acid aerosol (7.5%) and cough is recorded 60 minutes after the antitussive treatment by i.p. route. Male animals of 300-400 g pigs are placed in perspex box (20×30×30 cm) connected to an aerosol compressor; the animals are subjected to a citric acid saturated atmosphere, 60 minutes after the i.p. injection of a compound of the invention (0.1 and 0.3M solutions; 1 ml/kg).
The total number of cough strokes and the delay of the first cough are recorded during the first five minutes.
Five guinea pigs are used for each dose level and the results are compared with controls (vehicle treatment) and codeine phosphate 0.07M solution (standard treatment).
ED50 and the corresponding delay of first cough stroke are calculated.
The data obtained by i.p. administration are confirmed by oral administration.

[4] = system: pathological sputum of bronchitic rabbits; assay: Mucus regulating properties in bronchitic rabbits (sputum AUC as % compared to bronchitic controls); assay type: in vivo, male New Zealand white rabbits; settings: for Fucose (mg/ml), AUC as a 100% compared to bronchitic controls / Galactose (mg/ml), AUC as a 100% compared to bronchitic controls / Mucus production (ml/kg), AUC as a 100% compared to bronchitic controls / Phospholipids (mg/ml), AUC as a 100% compared to bronchitic controls / Protein (mg/ml), AUC as a 100% compared to bronchitic controls / Sialic acid (mg/ml), AUC as a 100% compared to bronchitic controls / Viscosity (cps), AUC as a 100% compared to bronchitic controls: Table 2, oral, equimolecular amounts to S-carboxymethyl cysteine; for mucus regulating activity (in words): rabbit, in vivo
Experimental: The animals are submitted to inhalation of a 5% H2 SO3 aqueous solution by aerosol (exposition of 3 hours a day for 3 alternate days), to induce a chronic bronchial inflammatory disease which causes a production of pathological sputum in the bronchial tree.
Aim of the experiments is to evaluate modifications of selective parameters such as dry weight of the sputum, viscosity, content in proteins, phospholipids, galactose, sialic acid and fucose, induced in this pathological sputum by pharmacological treatment with the compounds of the invention.
To this purpose, the sputum produced in the bronchial tree is collected daily, through a "T" shaped glass cannula, inserted in the trachea, before and after oral twice a day (9.00 a.m. and 4.00 p.m.) treatment with one of the compounds of the invention.
The schedule treatment procedure is shown in the following Scheme 1: [drawing 21] where 0 indicates the day of implantation of the tracheal cannula; -7-5-3 indicate the days of H2 SO3 treatment (H); 1, 2, 3, 4 indicate the days of oral administration of the compounds of the invention (T) and the time of mucus collection (M).
The mucus collected in day 1 in the morning is considered as a blank; 7 indicates the day of the animal sacrifice after the mucous collection.
The sputum samples are stored in the freezer (-20° C.) until the investigation of biological and rheological parameters is carried out.
The samples are investigated for relative viscosity, measured at 37° C. with a Brookfield viscometer (model LT VD) equipped with a 1,565° cone-plate, and aliquoted for biochemical analysis of protein, phospholipids, galactose, sialic acid and fucose contents. Dry weight of the mucus is also determined. For each parameter, cumulative data are referred to a seven days period after the beginning of the treatment and they are extrapolated using the AUC method (area under curve) calculated by the trapazoidal rule. Finally the data are compared with data obtained from controls (vehicle treatment), non bronchitic rabbits (vehicle treatment) and positive controls bronchitic rabbits treated with 0.153M […].

[5] = system: guinea pig trachea smooth muscle strips; assay: In vitro relaxation of guinea pig trachea smooth muscle strips contracted by methacoline; settings: for EC50: Cavia porcellus, contracted by methacoline, read-out: ED50 (relaxation of trachea smooth muscle strips)
[6] = system: bronchospasm induced by i.v. histamine; assay: Resolution of bronchospasm induced by i.v. histamine in anesthetized guinea-pigs (Konzett-Ressler test); assay type: in vivo; settings: intrajugular administration; more active than aminophylline
Acute toxicity in mice = settings: mouse, in vivo
mice = assay: Sedative effect; assay type: in vivo

Row | Compound | ED50 [2] [mg/kg] | Fucose (mg/ml), AUC as a 100% compared to bronchitic controls [4] [%] | Galactose (mg/ml), AUC as a 100% compared to bronchitic controls [4] [%] | Mucus production (ml/kg), AUC as a 100% compared to bronchitic controls [4] [%] | Phospholipids (mg/ml), AUC as a 100% compared to bronchitic controls [4] [%] | Protein (mg/ml), AUC as a 100% compared to bronchitic controls [4] [%] | Sialic acid (mg/ml), AUC as a 100% compared to bronchitic controls [4] [%] | Viscosity (cps), AUC as a 100% compared to bronchitic controls [4] [%] | also measured
1 | C#CCOc1ccccc1OCC1SCCN1C(=O)CCNCCNCCO (stereo not shown) | 3 to 6 | – | – | – | – | – | – | – | duration of action (antitussive) [1]: very prolonged duration of action
2 | C=CCOc1ccccc1OCC1SCCN1C(=O)CN (stereo not shown) | 3 to 30 | – | – | – | – | – | – | – | –
3 | COc1ccccc1OCC1(COc2ccccc2OC)SCCN1C(=O)CSC(C)=O | 230 | – | – | – | – | – | – | – | duration of action ([1]; dog cough test): very prolonged action; duration of action relative to codeine phosphate ([1]; dog cough test, longer than codeine phosphate): 2-3 times; % inhibition of cough stimulus ([1]; dog): 13%
4 | CCOC(=O)[C@@H]1CSC(COc2ccccc2OC)(COc2ccccc2OC)N1 [2,2-di(o-methoxyphenoxy)methyl-4-carbethoxythiazolidine] | 116 | – | – | – | – | – | – | – | –
5 | COc1ccccc1OCC1SCCN1C(=O)CSC(C)=O (stereo not shown) [2-(o-methoxyphenoxy)methyl-3-acetylthioacetylthiazolidine] | – | 151 | 57 | 127 | 37 | 78 | 107 | 59 | antitussive properties (in words) [3]: good antitussive activity; ED50 ([3]; 60 min): 77.1 mg/kg; ED50 ([3]; listed as 3-Acetylthioacetyl-2-(o-methoxyphenoxymethyl)thiazolidine, 60 min): lower than 5 mg/kg; duration of action ([1]; dog cough test): more favourable duration of action in comparison to codeine; inhibition of the cough stimulus ([1]; dog, 20 mg/kg): 54.2%; mucus regulating activity (in words) [4]: mucus regulating properties
6 | Cc1ccccc1OCC1SCCN1C(=O)Cn1ccnc1 (stereo not shown) [2-tolyloxy-methyl-3-(imidazol-1'-yl)acetylthiazolidine] | – | – | – | – | – | – | – | – | antitussive properties (in words) [3]: not active in the cough tests; antitussive properties (in words) ([1]; dog cough test): not active in the cough tests; mucus regulating activity (in words) [4]: some mucus regulating action in the bronchitic rabbits, with a spectrum of action very close to that of carboxymethylcysteine
7 | COc1ccccc1OCC1SCCN1C(=O)C=Cc1cc(CN2CCOCC2)c(O)c(OC)c1 (stereo not shown) [3-(3'-morpholinomethyl-4'-hydroxy-3'-methoxy-cinnamoyl)-2-(O-methoxyphenoxy)methylthiazolidine hydrochloride] | – | – | – | – | – | – | – | – | spasmolytic activity (in words) [5]: favourably compares with that of dihydroxypropyltheophylline; EC50 [5]: 190 µM; activity relative to aminophylline in the resolution of bronchospasm [6]: 3-6 times
8 | COc1ccccc1OCC1SCCN1C(=O)CCNCCNCCO (stereo not shown) [3-(3-(2-hydroxyethylamino)ethyl)aminopropanoyl-2-((O-methoxyphenoxy)methyl-thiazolidinebis maleate] | 3 to 6 | – | – | – | – | – | – | – | duration of action (antitussive) [1]: very prolonged duration of action
9 | COc1ccccc1OCC1SCCN1C(=O)CNC(C)=O (stereo not shown) [3-(N-acetylaminoacetyl)-2-(O-methoxyphenoxy)methyl-thiazolidine] | 3 to 30 | – | – | – | – | – | – | – | –
10 | O=C(Cn1ccnc1)N1CCSC1COc1ccccc1O (stereo not shown) [3-(imidazol-1'-yl)acetyl-2-[(o-hydroxyphenoxy)methyl]thiazolidone] | 96 | – | – | – | – | – | – | – | mucus regulating activity (in words) [4]: strong mucus regulating activity
11 | COc1ccccc1OCC1SCCN1C(=O)Cn1ccnc1 (stereo not shown) [3-(imidazol-1-yl)acetyl-2-(o-methoxyphenoxy)methyl-thiazolidine] | 40.6 | 97.5 | 21.8 | 162.5 | 65.8 | 55.2 | 63.8 | 39.1 | mucus regulating activity (in words) [4]: strong mucus regulating activity
12 | COc1ccccc1OCC1SCCN1C(=O)OC(C)(C)C (stereo not shown) [3-BOC-2-(O-methoxyphenoxy)-methyl-thiazolidine] | 3 to 30 | – | – | – | – | – | – | – | –
13 | COc1ccccc1OCC1SCCN1C(=O)C1CC1 (stereo not shown) [3-cyclopropylcarbonyl-2-(o-methoxyphenoxy)methylthiazolidine] | – | 103.6 | 60.0 | 90 | 74.5 | 57.9 | 60 | 92.6 | antitussive properties (in words) [3]: devoid of any antitussive properties; antitussive properties (in words) ([1]; dog cough test): devoid of any antitussive properties
14 | CCOC(=O)C(=O)N1CCSC1COc1ccccc1OC (stereo not shown) [3-ethoxyoxalyl-2-(o-methoxyphenoxy)methyl-thiazolidine] | – | 149.3 | 52.3 | 108.7 | 59.8 | 62 | 56.8 | 65.1 | antitussive properties (in words) [3]: devoid of any antitussive properties; antitussive properties (in words) ([1]; dog cough test): devoid of any antitussive properties
15 | COc1ccccc1OCC1SCCN1C(=O)CN (stereo not shown) [3-glycinyl-2-(O-methoxyphenoxy)methyl-thiazolidine] | 3 to 30 | – | – | – | – | – | – | – | –
16 | CCOC(=O)[C@@H]1CSC(COc2ccccc2OC)N1C(=O)CSC(C)=O (stereo partly shown) [4-carbethoxy-2-(o-methoxyphenoxy)methyl-3-acetylthioacetyl-thiazolidine] | – | 111 | 69 | 65 | 102 | 79 | 78 | 91 | LD50 (Acute toxicity in mice; ip): 670 mg/kg; LD50 (Acute toxicity in mice; po, os): 760 mg/kg; sedative effect, starting dose (mice): ≥ 30 mg/kg
17 | COc1ccccc1OCC1N[C@H](C(=O)O)CS1 (stereo partly shown) [4-carboxy-2-(o-methoxyphenoxymethyl)thiazolidine] | – | 55 | 29 | 95 | 49 | 48 | 52 | 40 | ED50 [3]: inactive; duration of action ([1]; dog cough test): middle; % inhibition of cough stimulus ([1]; dog): 43.8%
18 | Cn1c(=O)c2c(ncn2CC(O)CO)n(C)c1=O (stereo not shown) [dihydroxypropyltheophylline, reference compound] | – | – | – | – | – | – | – | – | EC50 [5]: 76 µM
